Results: US12660819B2, “Herbicidal derivatives” (SYNGENTA CROP PROTECTION AG, priority 2020, dated 2026)

Assays:
Type in all cases: in vivo
[1] = test system: Amaranthus retoflexus (AMARE); assay: Post-emergence Test (glasshouse, percentage damage to the plant); conditions: post-emergence spray, 1000 g/ha unless otherwise stated, evaluated after 13 days
Summary of the method: (§1)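 Percentage damage to the plant, assessed 13 days after application and scored 1–5 in 20% bands. Pots sown in standard soil received compound at 1000 g/ha unless otherwise stated, sprayed under 24/16 °C, 14 h light, 65% humidity.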

[2] = test system: Echinochloa crus-galli (ECHCG); assay: as above; conditions: post-emergence spray, 1000 g/ha unless otherwise stated, evaluated after 13 days
Summary of the method: as §1

[3] = test system: Ipomoea hederacea (IPOHE); assay: as above; conditions: post-emergence spray, 1000 g/ha unless otherwise stated, evaluated after 13 days
Summary of the method: (§2)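 Seeds sown in standard soil in a glasshouse (24/16 °C day/night, 14 h light, 65% humidity), then sprayed with an aqueous solution of the compound formulated in acetone/water 50:50 with 0.5% Tween 20 at 1000 g/ha unless otherwise stated. Percentage damage was scored after 13 days on a five-point scale (5=81-100%; 1=0-20%).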

Lolium perenne (LOLPE) [4] = assay: as above; conditions: post-emergence spray, 1000 g/ha unless otherwise stated, evaluated after 13 days
Summary of the method: as §1

Setaria faberi (SETFA) [5] = assay: as above; conditions: post-emergence spray, 1000 g/ha unless otherwise stated, evaluated after 13 days
Summary of the method: as §2

Solanum nigrum (SOLNI) [6] = assay: as above; conditions: post-emergence spray, 1000 g/ha unless otherwise stated, evaluated after 13 days
Summary of the method: as §1

[7] = test system: Amaranthus retoflexus (AMARE); assay: Pre-emergence Test (glasshouse, percentage damage to the plant); conditions: 1000 g/ha unless otherwise stated, five-point scale
Solanum nigrum (SOLNI) [8] = assay: as above; conditions: 1000 g/ha unless otherwise stated, five-point scale
Setaria faberi (SETFA) [9] = assay: as above; conditions: 1000 g/ha unless otherwise stated, five-point scale
Lolium perenne (LOLPE) [10] = assay: as above; conditions: 1000 g/ha unless otherwise stated, five-point scale
[11] = test system: Echinochloa crus-galli (ECHCG); assay: as above; conditions: 1000 g/ha unless otherwise stated, five-point scale
[12] = test system: Ipomoea hederacea (IPOHE); assay: as above; conditions: 1000 g/ha unless otherwise stated, five-point scale

CCn1c(C)c(-c2ccccc2Cl)c(=O)c(C(=O)O)c1-c1ccc(Cl)c(Cl)c1 [Compound 13, 5-(2-chlorophenyl)-2-(3,4-dichlorophenyl)-1-ethyl-6-methyl-4-oxo-pyridine-3-carboxylic acid]
Post-emergence Test AMARE, percentage damage to the plant (five-point scale) [1]: 4 (4=61-80%)
Post-emergence Test ECHCG, percentage damage to the plant (five-point scale) [2]: 4 (4=61-80%)
Post-emergence Test IPOHE, percentage damage to the plant (five-point scale) [3]: 4 (4=61-80%)
Post-emergence Test LOLPE, percentage damage to the plant (five-point scale) (Lolium perenne (LOLPE) [4]): 4 (4=61-80%)
Post-emergence Test SETFA, percentage damage to the plant (five-point scale) (Setaria faberi (SETFA) [5]): 4 (4=61-80%)
Post-emergence Test SOLNI, percentage damage to the plant (five-point scale) (Solanum nigrum (SOLNI) [6]): 3 (3=41-60%)
percentage damage to the plant, AMARE [7]: 4 (4=61-80%)
percentage damage to the plant, SOLNI (Solanum nigrum (SOLNI) [8]): 4 (4=61-80%)
percentage damage to the plant, SETFA (Setaria faberi (SETFA) [9]): 5 (5=81-100%)
percentage damage to the plant, LOLPE (Lolium perenne (LOLPE) [10]): 2 (2=21-40%)
percentage damage to the plant, ECHCG [11]: 5 (5=81-100%)
percentage damage to the plant, IPOHE [12]: 4 (4=61-80%)

CCn1c(C)c(-c2ccccc2F)c(=O)c(C(=O)O)c1-c1ccc(Cl)c(Cl)c1 [Compound 14, 2-(3,4-dichlorophenyl)-1-ethyl-5-(2-fluorophenyl)-6-methyl-4-oxo-pyridine-3-carboxylic acid]
Post-emergence Test AMARE, percentage damage to the plant (five-point scale) [1]: 4 (4=61-80%)
Post-emergence Test ECHCG, percentage damage to the plant (five-point scale) [2]: 4 (4=61-80%)
Post-emergence Test IPOHE, percentage damage to the plant (five-point scale) [3]: 4 (4=61-80%)
Post-emergence Test LOLPE, percentage damage to the plant (five-point scale) (Lolium perenne (LOLPE) [4]): 4 (4=61-80%)
Post-emergence Test SETFA, percentage damage to the plant (five-point scale) (Setaria faberi (SETFA) [5]): 4 (4=61-80%)
Post-emergence Test SOLNI, percentage damage to the plant (five-point scale) (Solanum nigrum (SOLNI) [6]): 3 (3=41-60%)
percentage damage to the plant, AMARE [7]: 2 (2=21-40%)
percentage damage to the plant, SOLNI (Solanum nigrum (SOLNI) [8]): 2 (2=21-40%)
percentage damage to the plant, SETFA (Setaria faberi (SETFA) [9]): 5 (5=81-100%)
percentage damage to the plant, LOLPE (Lolium perenne (LOLPE) [10]): 1 (1=0-20%)
percentage damage to the plant, ECHCG [11]: 4 (4=61-80%)
percentage damage to the plant, IPOHE [12]: 3 (3=41-60%)

CCn1c(C)c(-c2ccc(Cl)cc2Cl)c(=O)c(C(=O)O)c1-c1ccc(Cl)c(Cl)c1 [Compound 15, 5-(2,4-dichlorophenyl)-2-(3,4-dichlorophenyl)-1-ethyl-6-methyl-4-oxo-pyridine-3-carboxylic acid]
Post-emergence Test AMARE, percentage damage to the plant (five-point scale) [1]: 5 (5=81-100%)
Post-emergence Test ECHCG, percentage damage to the plant (five-point scale) [2]: 4 (4=61-80%)
Post-emergence Test IPOHE, percentage damage to the plant (five-point scale) [3]: 2 (2=21-40%)
Post-emergence Test LOLPE, percentage damage to the plant (five-point scale) (Lolium perenne (LOLPE) [4]): 1 (1=0-20%)
Post-emergence Test SETFA, percentage damage to the plant (five-point scale) (Setaria faberi (SETFA) [5]): 5 (5=81-100%)
Post-emergence Test SOLNI, percentage damage to the plant (five-point scale) (Solanum nigrum (SOLNI) [6]): 4 (4=61-80%)
percentage damage to the plant, AMARE [7]: 5 (5=81-100%)
percentage damage to the plant, SOLNI (Solanum nigrum (SOLNI) [8]): 3 (3=41-60%)
percentage damage to the plant, SETFA (Setaria faberi (SETFA) [9]): 5 (5=81-100%)
percentage damage to the plant, LOLPE (Lolium perenne (LOLPE) [10]): 1 (1=0-20%)
percentage damage to the plant, ECHCG [11]: 1 (1=0-20%)
percentage damage to the plant, IPOHE [12]: 1 (1=0-20%)

CCn1c(C)c(-c2cccc(OC(F)(F)F)c2)c(=O)c(C(=O)O)c1-c1ccc(Cl)c(Cl)c1 [Compound 16, 2-(3,4-dichlorophenyl)-1-ethyl-6-methyl-4-oxo-5-[3-(trifluoromethoxy)phenyl]pyridine-3-carboxylic acid]
Post-emergence Test AMARE, percentage damage to the plant (five-point scale) [1]: 4 (4=61-80%)
Post-emergence Test ECHCG, percentage damage to the plant (five-point scale) [2]: 5 (5=81-100%)
Post-emergence Test IPOHE, percentage damage to the plant (five-point scale) [3]: 4 (4=61-80%)
Post-emergence Test LOLPE, percentage damage to the plant (five-point scale) (Lolium perenne (LOLPE) [4]): 1 (1=0-20%)
Post-emergence Test SETFA, percentage damage to the plant (five-point scale) (Setaria faberi (SETFA) [5]): 5 (5=81-100%)
Post-emergence Test SOLNI, percentage damage to the plant (five-point scale) (Solanum nigrum (SOLNI) [6]): 4 (4=61-80%)
percentage damage to the plant, AMARE [7]: 1 (1=0-20%)
percentage damage to the plant, SOLNI (Solanum nigrum (SOLNI) [8]): 1 (1=0-20%)
percentage damage to the plant, SETFA (Setaria faberi (SETFA) [9]): 3 (3=41-60%)
percentage damage to the plant, LOLPE (Lolium perenne (LOLPE) [10]): 1 (1=0-20%)
percentage damage to the plant, ECHCG [11]: 4 (4=61-80%)
percentage damage to the plant, IPOHE [12]: 2 (2=21-40%)
